Source: patent publication US8338141B2, “Methionine recovery processes” (Novus International, Inc., priority 2003, dated 2012)
≈ marks a conversion by molar mass, not a printed value. Like-named read-outs stand apart in the source and are kept apart here.

How the values were obtained:
[1] = 25° C., Merck Index 12th Edition 1996; cited from earlier work
physchem = conditions: thermodynamic from solid
Experimental: (§1) The pH of the slurry was measured to be 5.54. A well-mixed sample of this slurry was drawn, and solids removed from the sample by centrifugation followed by filtration.
(§2) From a well-mixed sample of this slurry, solids were removed as before by centrifugation and filtration. […] At this point, the whole cells were separated from the methionine and fermentation solubles by centrifugation.
(§3) Methionine was added to the fermentation broth at a concentration of 56 g/L. In addition to soluble methionine, the slurry had insoluble methionine, microbial cells and components of fermentation media. 50% NaOH was added to the slurry at a concentration equal to 0.5 eq. weight of methionine. […] A sample of the slurry was removed and filtered as previously described.
(§4) Methionine was added to fermentation broth at a concentration of 77 g/L. The slurry was then heated to 70° C. without pH adjustment. This slurry was then filtered through a 0.45 micron filter in a heated filtration unit to remove the whole cells and other insoluble fermentation broth components. The filtrate was collected and analyzed for methionine.
(§5) Concentrated sulfuric acid (H2SO4, 96% w/w) was added in a concentration equal to 1 equivalent weight of methionine to the slurry, lowering the pH of the slurry to 2.49. Methionine concentration was measured from a sample after centrifugation and filtration as previously described.
(§6) H2SO4 (96% w/w) at a concentration of 1 equivalent weight of methionine was added to this slurry, decreasing the pH of the broth to 2.39.

[2] = for concentration of methionine remaining in the supernatant (mother liquor): buffer, 18 h
Experimental: To the cell free broth containing the solubilized L-methionine, sulfuric acid (96% w/w) was added and its pH lowered to […], the isoelectric point of L-methionine. […] The slurry was then stored overnight at 4° C. to allow for precipitation of the crystals. The slurry was then centrifuged to collect the methionine crystals.
At pH of 1.68, cells from the slurried fermenter broth were separated first by centrifugation followed by filtration through a 0.45 micron filter. The pH of the filtrate was then raised to 5.75, the isoelectric point of methionine by addition of 50% NaOH, resulting in formation of L-methionine crystals. The slurry was placed in a refrigerator at 4° C. for 18 hours to allow for additional crystallization of methionine. The crystals were then removed by centrifugation and filtration and further dried on a lyophilizer. The dried crystals were harvested from the lyophilizer. […] Crystals were collected by centrifugation at 4° C. by using a pre-chilled centrifuge.
For optimal recovery of methionine, solids from the acidified slurry above were removed by centrifugation and filtration and the pH of the recovered filtrate was raised to 5.6 using NaOH. […] This solution was placed again in the refrigerator at 4° C. for 18 hours to allow for formation of additional methionine crystals. Crystals formed after 18 hours at 4° C. were filtered and dried in a lyophilizer.

[3] = soluble methionine concentration in the filtrate of L-methionine-supplemented fermentation broth slurry, by HPLC after centrifugation and filtration
Experimental: as §1, §2, §3, §4, §5, §6

Row | Structure (SMILES) | water solubility [1] [mg/mL] | solubility (physchem; 22 °C, pH 5.54, plasma or biological fluid) [mg/mL] | solubility (physchem; pH 2.39, plasma or biological fluid) [mg/mL] | solubility (physchem; pH 2.49, plasma or biological fluid) [mg/mL] | solubility (physchem; pH 8.92, plasma or biological fluid) [mg/mL] | solubility (physchem; pH 9.36, plasma or biological fluid) [mg/mL] | concentration of methionine remaining in the supernatant (mother liquor) ([2]; pH 5.6) [µg/mL] | concentration of methionine remaining in the supernatant (mother liquor) ([2]; pH 5.75) [µg/mL] | concentration of methionine remaining in the supernatant ([2]; pH 5.95) [µg/mL] | solubility of methionine in fermentation broth ([3]; 22° C., no pH adjustment) [mg/mL] | solubility of methionine in the solution versus pH 9.36 ([3]; NaOH 2 equivalent weight, pH 10.22) | solubility of L-methionine versus lower NaOH levels ([3]; NaOH 2.5 equivalent weight, pH 12.53) | concentration of methionine in the filtrate ([3]; slurry with 56 g/L methionine, NaOH 1 eq weight, pH 9.38) [µg/mL] | additional methionine solubilized ([3]; slurry with 56 g/L methionine, NaOH 1.5, 2 and 2.5 eq wt, pH 9.82, 10.47 and 12.23) | concentration of methionine in the filtrate ([3]; slurry with 77 g/L methionine, heated to 70° C., no pH adjustment, 0.45 micron filter) [µg/mL]
1 | CSCCC(N)C(=O)O (racemic) [DL-methionine] | 33.81 (≈ 227 mM) | – | – | – | – | – | – | – | – | – | – | – | – | – | –
2 | CSCC[C@H](N)C(=O)O [L-methionine] | – | 38 (≈ 255 mM) | 55 (≈ 369 mM) | 75 (≈ 503 mM) | 58 (≈ 389 mM) | 78 (≈ 523 mM) | 39500 | 47200 | 33000 | 38 | unchanged | did not further increase | 56000 | No additional methionine was solubilized | 74600
